# Laboratory results taken from patent US20100203044A1, “DR6 ANTAGONISTS AND USES THEREOF IN TREATING NEUROLOGICAL DISORDERS” (priority 2006, published 2010).
# Entries after “also recorded” stand apart in the source; their conditions may differ. Residues, ends and D or L forms follow the SMILES beside them. *: point of attachment. Cbz = O=C(OCc1ccccc1)*; CH2F = FC*
# What was measured:
# [1] = cited from earlier work
# sensory neurons = assay: NGF deprivation assay in Campenot Chambers, local sensory axonal degeneration; format: cell-based, mouse; conditions: for sensory axonal degeneration induced by NGF withdrawal: 30 μg/ml in axonal compartments with anti-NGF, 0, 6 and 24 hours
# Experimental: Materials and methods used to generate the data shown in this figure are as follows. To examine whether ligand is required for DR6 function in sensory axonal degeneration, a compartmented culture analysis of sensory axon growth and degeneration was carried out as follows. A Campenot nerve cell chamber system was used to isolate neuronal processes (axons) from the cell bodies in different compartments (separate fluid environments), analogous to neuronal cell bodies in one location of the nervous system projecting their axons to a distal target in another location. The assay was carried out as originally described by Campenot (Campenot et al., J. Neurosci. 11(4): 1126-39 (1991)) with the following modifications. Briefly, 35-mm tissue culture dishes were coated with PDL/Laminin and scratched with a pin rake (Tyler Research) to generate tracks, as illustrated for example in FIGS. 1 and 4 of Campenot et al., supra.
# A drop of culture medium (Neurobasal medium with B27 supplement, 25 ng/ml of NGF, and 4 g/L of methylcellulose) was placed on the scratched substratum. A Teflon divider (Tyler Research) was seated on silicone grease and a dab of silicone grease was placed at the mouth of the center slot. Dissociated sensory neurons derived from E12.5 mouse DRGs were suspended in methylcellulose-thickened medium and loaded into a disposable sterile syringe fitted with a 22-gauge needle. This cell suspension was injected into the center slots of each compartmented dish under the dissecting microscope. The neurons were allowed to settle overnight. […]
# To trigger local axonal degeneration, NGF-containing medium from axonal compartments was substituted with neurobasal medium with an NGF blocking antibody (anti-NGF, Genentech, Inc., 20 ug/ml). Zero hours, 6 hours, or 24 to 48 hours following NGF deprivation, sensory neurons were fixed in 4% PFA for 30 minutes at room temperature and processed for immunofluorescence staining with axonal marker TUJ-1 (Covance, 1:500 dilution) to visualize degenerating axons by fluorescence microscopy (FIG. 11B) (as above described in Example 7). […]
# To examine whether ligand is required for DR6 function in axonal degeneration program triggered by NGF withdrawal, 30 μg/ml of hDR6-ECD-Fc immunoadhesin protein (described in EXAMPLE 3 above) or 30 μg/ml of a control Fc (Genentech, Inc.) was included together with anti-NGF treatment in axonal compartments of Campenot Chambers. Zero to 24 hours after NGF deprivation, axons in Campenot Chambers were fixed with 4% PFA/PBS and visualized by immuno-fluorescence staining with TUJ-1 (1:500, Covance)/secondary antibody conjugated to a fluorescence group Alexa 488 (Molecular Probes, BD) (FIG. 11B). […]
# commissural neurons = assay: dorsal spinal cord (commissural explant) survival assay; format: cell-based, rat; conditions: for commissural axon degeneration: 48 hours, hDR6-ECD-Fc at 30 μg/ml and 10 μg/ml
# Experimental: To examine functional roles of DR6 in axonal degeneration and programmed cell death of commissural neurons, an RNAi-based dorsal spinal cord survival assay (Kennedy et al., Cell, 78:425-435 (1994); Wang et al., supra, 1999) was conducted (see FIG. 3). E13 rat or E11.5 mouse embryos were placed in L15 medium (Gibco) and siRNAs (IDT) together with green fluorescent protein (“GFP”)-encoding plasmids were injected into the neural tubes. The siRNAs and plasmids were then delivered to dorsal progenitor cells by electroporation. Dorsal spinal cord explants were dissected out, embedded into a 3D-collagen gel matrix, and cultured in Opti-MEM/F12 medium (Invitrogen) with recombinant netrin-1 ([…]) and 5% horse serum (Sigma) at 37° C. in a 5% CO2 environment. Within 16 hours in response to chemo-attractant netrin-1, commissural axons grow out of the explant into the collagen matrix gel (Kennedy et al., supra, 1994). Commissural axons are visualized by GFP fluorescence by observation using an inverted microscope.
# Materials and methods used to generate the data shown in this figure are as follows. To investigate physiological roles of DR6 receptor in axonal degeneration and programmed cell death of commissural neurons, a dorsal spinal cord survival assay according to protocols known in the art (Kennedy et al., Cell, 78:425-435 (1994); Wang et al., Nature, 401:765-769 (1999)) was performed (with data shown in FIG. 4B). E13 rat embryos were placed in L15 medium (Gibco) and injected into their neural tubes with the following siRNA constructs (FIG. 4B): […]
# A dorsal spinal cord survival assay (as described in Example 2 above) was conducted using anti-DR6 antibodies. Microscopic observation (using green fluorescence channel for GFP) was employed to visualize commissural axons. […] To visualize GFP-expressing commissural axons, pictures were taken on the Axiovert 200 Zeiss inverted microscope (in green fluorescence channel for GFP) using AxioVision40 Release 4.5.0.0 SP1 (March 2006) computer software from Carl Zeiss Imaging Solutions. […]
# [2] = tested on: DR6-AP binding sites on BAX null sensory axons; assay: in situ DR6-AP sensory axon binding assay after NGF deprivation; format: cell-based, mouse; conditions: BAX null sensory axons E12.5; BACE inhibitor at 1 uM
# Experimental: For the in situ DR6-AP sensory axon binding assay, either wild-type or Bax null sensory explants were cultured in Neurobasal medium/B27 (Invitrogen) as outlined in the Examples 7-8 above, with 50 ng/ml NGF (Roche). Two days post-plating, DRG explants were either left untreated or deprived from NGF as described above in Examples 7-8. Bax inhibitory peptide was added where indicated on FIG. 12B (10 uM, Bax-V5, Tocris). Twelve hours post-NGF deprivation, DRG explants were washed twice with the binding buffer (HBSS, Gibco Cat. No. 14175-095, with 0.2% BSA, 0.1% NaN3, 5 mM CaCl2, 1 mM MgCl2, 20 mM HEPES, pH=7.0). AP binding assay was then carried out by making a 1:1 mixture of DR6-AP conditioned medium and the binding buffer (or control AP conditioned medium and the binding buffer), which was applied directly to DRG explants in 8-well culture slides (Becton, Dickinson and Company) and incubated for 90 minutes at room temperature.
# Following the incubation, unbound DR6-AP proteins were washed away by rinsing DRG explants five times with the binding buffer. DRG explants were then fixed with 3.7% formaldehyde diluted in PBS, for 12 minutes at room temperature. The remaining formaldehyde was removed by rinsing DRG explants 3 times with HBS buffer (20 mM HEPES pH=7.0, 150 mM NaCl). Endogenous AP activity was blocked by heat inactivation at 65° C. in HBS buffer for 30 minutes. […]
compound,measurement,setting,value
CC12CC3CC(C)(C1)CC(N)(C3)C2 [Memantine],"symptoms across SIB, ADCS-ADL19, CIBIC-Plus and NPI outcome measures","[1]; human, in vivo",improvement and stabilization of symptoms
same,"outcome measures SIB, ADCS-ADL19, CIBIC-Plus, NPI, BGP versus placebo",[1]; patients taking stable doses of Donepezil,benefit over placebo
"CC[C@H](C)[C@H](NC(=O)OCc1ccccc1)C(=O)N[C@@H](CCC(=O)OC)C(=O)N[C@H](C(=O)N[C@@H](CC(=O)OC)C(=O)CF)[C@@H](C)O [caspase-8 inhibitor, Z-IETD-FMK, reference compound] (Cbz-IE(OMe)TD(OMe)-CH2F)",sensory axonal degeneration after NGF deprivation,"sensory neurons; neurons cultured 5 days, then 24 hours, SP 600125 1 uM, Z-IETD-FMK 10 uM, Z-DEVD-FMK 10 uM",delayed
"(L)-HIV-TAT48-57-PP-JBD20 [L-JNK-I, reference compound]",axonal degeneration of commissural neurons,commissural neurons; JNK signaling blocked by peptide inhibitor at 1 μM,partially blocked axonal degeneration
OM99-2 [reference compound],sensory axonal degeneration in the absence of NGF,sensory neurons; BACE inhibitor at 1 uM,blocked
same,disappearance of DR6-AP binding sites from sensory axons following NGF withdrawal,[2],can block the disappearance of DR6-AP binding sites
"hDR6-ECD-Fc: human DR6 extracellular domain sequence fused with Fc, SEQ ID NO: 4",commissural axon degeneration,commissural neurons,delayed
same,commissural axon degeneration,commissural neurons; listed as DR6-Fc,can be delayed
same,sensory axonal degeneration induced by NGF withdrawal,sensory neurons,delayed sensory axonal degeneration; also recorded: delayed the onset of axonal degeneration
same,sensory axonal degeneration induced by NGF withdrawal,sensory neurons; listed as DR6-Fc,can be delayed
